Source: patent publication US9700603B2, “Use of antidotes to coagulation inhibitors indicated in the prevention or treatment of thromboembolic pathologies” (LABORATOIRE FRANCAIS DU FRACTIONNEMENT ET DES …, priority 2013, dated 2017)

Experiments:
Type in all cases: biochemical
[1] = tested on: thrombin generation in normal plasma; assay: Thrombin generation (TGT) induced by tissue factor (0.5 pM)
Protocol: The effect of an overdose of FXa in normal plasma was assessed by measuring thrombin generation (TGT) following induction by tissue factor (0.5 pM) (FIG. 5, Table I). Doses of 0.03 μg/ml to 0.5 μg/ml of FXa were compared. The quantity of thrombin generated depends on the dose of FXa added.
A similar experiment was repeated in the presence of a therapeutic dose of 0.35 μg/ml of Rivaroxaban (FIG. 6, Table I). […] On the other hand, a correction of thrombin generation is obtained starting from 0.06 μg/ml (▪) up to a dose of 0.25 μg/ml (▴).

[2] = tested on: thrombin generation in normal plasma pool; assay: Thrombin generation test (TGT Fluoroskan), extrinsic pathway, TF 5 pM / PL 4 μM; settings: rivaroxaban 0.35 μg/mL in PNP, no FXa
Protocol: (§1) The thrombin generation test consists of activating coagulation ex vivo either using a mixture of tissue factor and phospholipids, or using cephalin and then measuring the concentration of thrombin generated over time.
(§2) The reaction is started by the addition of 20 μL of Fluca-kit (substrate+CaCl2) which constitutes the start of the measurement of the appearance of thrombin. The appearance of fluorescence is measured on a fluorometer of the Fluoroskan Ascent type (ThermoLabsystems) at an excitation wavelength of 390 nm and emission wavelength of 460 nm. The thrombinograms (curves representing the intensity of fluorescence as a function of time) are then analyzed using the Thrombinoscope™ software which converts the fluorescence value to nM of thrombin by comparative calculation.
The reagents, the automaton and the experimental protocol are identical to those described in Example 1. […]

[3] = tested on: thrombin generation in normal plasma pool; assay: Thrombin generation test (CAT), intrinsic pathway, cephalin alone
Protocol: as §1, §2
The reagents, the automated equipment and the experimental protocol are identical to those described in Example 1.

[4] = tested on: normal plasma pool; assay: aPTT with PTT-A; settings: rivaroxaban 0.35 μg/mL in PNP, no FXa
[5] = tested on: thrombin generation in normal plasma pool; assay: Thrombin generation test (TGT Fluoroskan), extrinsic pathway, TF 1 pM / PL 4 μM
Protocol: The stock solution of rivaroxaban at 436 μg/mL is diluted in 5% DMSO in order to obtain intermediate concentrations which, added to the NPP (Normal Pool Plasma), give final concentrations of rivaroxaban in μg per mL of plasma.
as §1, §2

[6] = tested on: thrombin generation in normal plasma; assay: Thrombin generation (TGT) induced by cephalin
Protocol: A series of similar experiments is carried out by inducing the initiation of coagulation by cephalin. The series of preliminary experiments mimics the extrinsic activation of coagulation. This second series of experiments mimics the intrinsic activation of coagulation. The presence of FXa in an increasing quantity in normal plasma (●) […] the speed of appearance of thrombin without changing the total quantity of thrombin generated (FIG. 7, Table II). The speed of appearance of the thrombin is correlated with the dose of FXa added. Shorter times to peak are obtained in the presence of FXa.
The effect of FXa following the induction of thrombin generation by cephalin is then measured in the presence of Rivaroxaban at 0.35 μg/ml (FIG. 8, Table II). […] The presence of FXa in an increasing concentration makes it possible to increase the quantity of thrombin generated in a dose-dependent manner, as well as to reduce the time to peak. A maximum quantity of thrombin is obtained in the case of a concentration comprised between 0.125 and 0.25 μg/ml.

[7] = tested on: normal plasma pool; assay: Prothrombin time (PT) with RecombiPlastin
[8] = Unicalibrator + 0.35 μg/ml Rivaroxaban, no hFXa
[9] = rivaroxaban 0.35 μg/ml in PNP, no FX
[10] = rivaroxaban 0.5 μg/mL in PNP, no FX (Table 2)
[11] = rivaroxaban 0.5 μg/ml in PNP, no FX (Table 1)

O=C(NC[C@H]1CN(c2ccc(N3CCOCC3=O)cc2)C(=O)O1)c1ccc(Cl)s1 [rivaroxaban]
reduction of thrombin generation versus untreated plasma ([1]; 0.35 μg/ml of Rivaroxaban): approximately 75% | Lag time [1, 8]: 10.17 min | Peak [1, 8]: 10.69 nM | ttPeak [1, 8]: 20.5 min | ETP (endogenous thrombin potential) [2]: 772 nM·min | LT (lag time) [2]: 11.11 min | Peak [2]: 31.32 nM | ST (start time) [2]: 67 min | TTP (time to peak) [2]: 25.33 min | mVRI (mean velocity rate index) [2]: 2.20 nM/min | effect on ability to generate thrombin from normal plasma ([3]; 0.35 μg/mL of Rivaroxaban, activation with Cephalin): completely destroys the ability to generate thrombin | ETP (endogenous thrombin potential) [3, 9]: 230.5 nM·min | LT (lag time) [3, 9]: 48.17 min | Peak [3, 9]: 8.49 nM | ST (start time) [3, 9]: 116 min | TTP (time to peak) [3, 9]: 54 min | mVRI (mean velocity rate index) [3, 9]: 1.46 nM/min | aPTT with PTT-A [4]: 50.5 s | effect on ability to generate thrombin from normal plasma ([5]; 0.5 μg/mL of Rivaroxaban, activation by tissue factor and phospholipids): completely destroys the ability to generate thrombin | LT (lag time) [5, 10]: 30.59 min | Peak [5, 10]: 6.83 nM | TTP (time to peak) [5, 10]: 58.81 min | mVRI (mean velocity rate index) [5, 10]: 0.24 nM/min | LT (lag time) [5, 11]: 25.5 min | Peak [5, 11]: 7.42 nM | TTP (time to peak) [5, 11]: 49.33 min | mVRI (mean velocity rate index) [5, 11]: 0.31 nM/min | effect on thrombin generation induced by cephalin ([6]; Rivaroxaban at 0.35 μg/ml): completely inhibits thrombin generation | ETP [6, 8]: 0 nM | Peak [6, 8]: 0 nM | ttPeak [6, 8]: 0 min | PT with RecombiPlastin 2G (ISI: 1.0) ([7]; rivaroxaban 0.35 μg/mL in PNP, no FXa): 26 s | PT (RecombiPlastin ISI: 1.0) ([7]; rivaroxaban 0.5 μg/ml in PNP, no FX): 32.5 s
